Legend:
[1] = test system: rice flat sedge; experiment: Test Example 3: herbicidal effect by foliage application, Wagner pot (Table 18, symbol E); assay type: in vivo, rice flat sedge (Cyperus iria); conditions: for Herbicidal effect on E (rice flat sedge), foliage application: amount of applied herbicide 320 g/ha
In short: (§1)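 Plants were sown in alluvial soil held under 0.1–0.5 cm standing water and grown 14 days in a greenhouse at 25–30 °C. An emulsifiable formulation, water-diluted to the set dose, was then sprayed onto the foliage, and effects were scored three weeks later using previously defined criteria.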

[2] = test system: Japanese bulrush; experiment: Test Example 2: herbicidal activity, application during weed generation under submerged conditions (Table 17, symbol B); assay type: in vivo, Japanese bulrush (Schoenoplectus juncoides); conditions: AAH 320 g/ha; application during weed generation, submerged conditions
In short: (§2)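 3-wk visual-criteria score after one water-surface dose. Emulsion formulation, water-diluted to set rate; applied at 1–2 leaf stage; alluvial soil, 4 cm standing water; seeds co-sown; greenhouse 25–30° C.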

[3] = test system: chickweed; experiment: Test Example 4: herbicidal effect by soil treatment (Table 19, symbol P); assay type: in vivo, common chickweed (Stellaria media); conditions: amount of applied herbicide 320 g/ha
In short: (§3)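 Soil-surface application: an emulsion agent diluted with water to the predetermined dose is sprayed uniformly over seeds lying under roughly 1.5 cm of sterilized diluvial soil. Boxes stay in a greenhouse at 25° C. to 30° C. Three weeks later, each species is graded on previously defined criteria.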

[4] = test system: late watergrass; experiment: Test Example 2: herbicidal activity, application during weed generation under submerged conditions (Table 17, symbol A); assay type: in vivo, late watergrass (Echinochloa oryzicola); conditions: AAH 320 g/ha; application during weed generation, submerged conditions
In short: as §2

[5] = test system: windgrass; experiment: Test Example 5: herbicidal effect by foliage application, plastic box (Table 20, symbol L); assay type: in vivo, windgrass (Apera spica-venti); conditions: foliage application, 320 g/ha, three weeks after application
In short: (§4)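 Sow seeds spot-wise in sterilized diluvial soil; cover with ~1.5 cm soil. Grow 14 days in greenhouse, 25° C. to 30° C. Spray foliage with emulsion diluted to predetermined amount. Rate effect after 3 weeks.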

[6] = test system: windgrass; experiment: Test Example 4: herbicidal effect by soil treatment (Table 19, symbol L); assay type: in vivo, windgrass (Apera spica-venti); conditions: amount of applied herbicide 320 g/ha
In short: as §3

[7] = test system: lambsquarters; experiment: Test Example 5: herbicidal effect by foliage application, plastic box (Table 20, symbol O); assay type: in vivo, lambsquarters (Chenopodium album); conditions: foliage application, 320 g/ha, three weeks after application
In short: as §4

[8] = test system: late watergrass; experiment: Test Example 1: herbicidal activity, application before weed generation under submerged conditions (Table 16, symbol A); assay type: in vivo, late watergrass (Echinochloa oryzicola); conditions: amount of applied herbicide 320 g/ha
In short: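 Alluvial soil was flooded to 4 cm depth, weed seeds were sown mixed and 2.5-leaf rice seedlings were transplanted. On sowing day, the compound's emulsion, diluted in water to a set dose, was applied to the water surface. Plants grew at 25–30 °C and were scored 0–5 after three weeks.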

[9] = test system: barnyard grass; experiment: Test Example 3: herbicidal effect by foliage application, Wagner pot (Table 18, symbol H); assay type: in vivo, barnyard grass (Echinochloa crus-galli); conditions: for Herbicidal effect on H (barnyard grass), foliage application: amount of applied herbicide 320 g/ha
In short: as §1

[10] = test system: persian speedwell; experiment: Test Example 5: herbicidal effect by foliage application, plastic box (Table 20, symbol R); assay type: in vivo, Persian speedwell (Veronica persica); conditions: foliage application, 320 g/ha, three weeks after application
In short: as §4

[11] = test system: southern crabgrass; experiment: Test Example 5: herbicidal effect by foliage application, plastic box (Table 20, symbol F); assay type: in vivo, southern crabgrass (Digitaria ciliaris); conditions: foliage application, 320 g/ha, three weeks after application
In short: as §4

[12] = test system: persian speedwell; experiment: Test Example 4: herbicidal effect by soil treatment (Table 19, symbol R); assay type: in vivo, Persian speedwell (Veronica persica); conditions: amount of applied herbicide 320 g/ha
In short: as §3

[13] = test system: oval-leafed pondweed; experiment: Test Example 2: herbicidal activity, application during weed generation under submerged conditions (Table 17, symbol C); assay type: in vivo, oval-leafed pondweed (Monochoria vaginalis); conditions: AAH 320 g/ha; application during weed generation, submerged conditions
In short: as §2

[14] = test system: Italian ryegrass; experiment: Test Example 4: herbicidal effect by soil treatment (Table 19, symbol K); assay type: in vivo, Italian ryegrass (Lolium multiflorum); conditions: amount of applied herbicide 320 g/ha
In short: as §3

[15] = test system: green foxtail; experiment: Test Example 4: herbicidal effect by soil treatment (Table 19, symbol G); assay type: in vivo, green foxtail (Setaria viridis); conditions: amount of applied herbicide 320 g/ha
In short: as §3

[16] = test system: green foxtail; experiment: Test Example 5: herbicidal effect by foliage application, plastic box (Table 20, symbol G); assay type: in vivo, green foxtail (Setaria viridis); conditions: foliage application, 320 g/ha, three weeks after application
In short: as §4

[17] = test system: Italian ryegrass; experiment: Test Example 5: herbicidal effect by foliage application, plastic box (Table 20, symbol K); assay type: in vivo, Italian ryegrass (Lolium multiflorum); conditions: foliage application, 320 g/ha, three weeks after application
In short: as §4

Row | Compound | herbicidal effect on rice flat sedge (E) ([1]; 320 g/ha) | herbicidal effect rating, B: Japanese bulrush [2] | P: chickweed, herbicidal effect grade [3] | herbicidal effect rating, A: late watergrass [4] | herbicidal effect on windgrass (L) [5] | L: windgrass, herbicidal effect grade [6] | herbicidal effect on lambsquarters (O) [7] | Herbicidal effect, A: late watergrass [8] | herbicidal effect on barnyard grass (H) ([9]; 320 g/ha) | herbicidal effect on persian speedwell (R) [10] | herbicidal effect on southern crabgrass (F) [11] | R: persian speedwell, herbicidal effect grade [12] | herbicidal effect rating, C: oval-leafed pondweed [13] | K: Italian ryegrass, herbicidal effect grade [14] | G: green foxtail, herbicidal effect grade [15] | herbicidal effect on green foxtail (G) [16] | herbicidal effect on Italian ryegrass (K) [17] | Herbicidal effect on E (rice flat sedge), foliage application [1] | Herbicidal effect on H (barnyard grass), foliage application [9]
1 | CCOc1cc(F)ccc1-c1sc2cc(C)c(C)cc2c1-c1c(O)c(C)nn(C)c1=O [5-103] | 5 (Herbicidal rate of 90% or more (almost completely withered)) | 3 (Herbicidal rate of 40% or more and less than 70%) | 3 (Herbicidal rate of 40% or more and less than 70%) | 2 (Herbicidal rate of 20% or more and less than 40%) | 5 (Herbicidal rate of 90% or more (almost completely withered)) | 3 (Herbicidal rate of 40% or more and less than 70%) | 4 (Herbicidal rate of 70% or more and less than 90%) | 5 (Herbicidal rate of 90% or more (almost completely withered)) | 5 (Herbicidal rate of 90% or more (almost completely withered)) | 5 (Herbicidal rate of 90% or more (almost completely withered)) | 5 (Herbicidal rate of 90% or more (almost completely withered)) | 4 (Herbicidal rate of 70% or more and less than 90%) | 3 (Herbicidal rate of 40% or more and less than 70%) | 1 (Herbicidal rate of 5% or more and less than 20%) | 3 (Herbicidal rate of 40% or more and less than 70%) | 5 (Herbicidal rate of 90% or more (almost completely withered)) | 4 (Herbicidal rate of 70% or more and less than 90%) | – | –
2 | CCOc1ccc2c(-c3c(O)c(C)nn(C)c3=O)c(-c3ccccc3OC)sc2c1Cl [7-003] | – | 3 (Herbicidal rate of 40% or more and less than 70%) | 4 (Herbicidal rate of 70% or more and less than 90%) | 0 (Herbicidal rate of 5% or less (almost no effect)) | 3 (Herbicidal rate of 40% or more and less than 70%) | 0 (Herbicidal rate of 5% or less (almost no effect)) | 5 (Herbicidal rate of 90% or more (almost completely withered)) | 2 (Herbicidal rate of 20% or more and less than 40%) | – | 5 (Herbicidal rate of 90% or more (almost completely withered)) | 1 (Herbicidal rate of 5% or more and less than 20%) | 5 (Herbicidal rate of 90% or more (almost completely withered)) | 0 (Herbicidal rate of 5% or less (almost no effect)) | 0 (Herbicidal rate of 5% or less (almost no effect)) | 0 (Herbicidal rate of 5% or less (almost no effect)) | 4 (Herbicidal rate of 70% or more and less than 90%) | 4 (Herbicidal rate of 70% or more and less than 90%) | 5 (Herbicidal rate of 90% or more (almost completely withered)) | 4 (Herbicidal rate of 70% or more and less than 90%)
3 | CCOc1ccccc1-c1sc2c(Cl)c(OCC)ccc2c1-c1c(O)c(C)nn(C)c1=O [7-004] | – | 3 (Herbicidal rate of 40% or more and less than 70%) | 4 (Herbicidal rate of 70% or more and less than 90%) | 3 (Herbicidal rate of 40% or more and less than 70%) | 0 (Herbicidal rate of 5% or less (almost no effect)) | 0 (Herbicidal rate of 5% or less (almost no effect)) | 4 (Herbicidal rate of 70% or more and less than 90%) | 3 (Herbicidal rate of 40% or more and less than 70%) | – | 5 (Herbicidal rate of 90% or more (almost completely withered)) | 5 (Herbicidal rate of 90% or more (almost completely withered)) | 5 (Herbicidal rate of 90% or more (almost completely withered)) | 2 (Herbicidal rate of 20% or more and less than 40%) | 4 (Herbicidal rate of 70% or more and less than 90%) | 5 (Herbicidal rate of 90% or more (almost completely withered)) | 5 (Herbicidal rate of 90% or more (almost completely withered)) | 4 (Herbicidal rate of 70% or more and less than 90%) | 5 (Herbicidal rate of 90% or more (almost completely withered)) | 5 (Herbicidal rate of 90% or more (almost completely withered))
4 | Cc1nn(C)c(=O)c(-c2c(-c3ccc(OCC(F)(F)F)cc3)oc3ccccc23)c1O [8-005] | – | 3 (Herbicidal rate of 40% or more and less than 70%) | 2 (Herbicidal rate of 20% or more and less than 40%) | 4 (Herbicidal rate of 70% or more and less than 90%) | 3 (Herbicidal rate of 40% or more and less than 70%) | 0 (Herbicidal rate of 5% or less (almost no effect)) | 5 (Herbicidal rate of 90% or more (almost completely withered)) | 5 (Herbicidal rate of 90% or more (almost completely withered)) | – | 5 (Herbicidal rate of 90% or more (almost completely withered)) | 5 (Herbicidal rate of 90% or more (almost completely withered)) | 4 (Herbicidal rate of 70% or more and less than 90%) | 3 (Herbicidal rate of 40% or more and less than 70%) | 5 (Herbicidal rate of 90% or more (almost completely withered)) | 4 (Herbicidal rate of 70% or more and less than 90%) | 5 (Herbicidal rate of 90% or more (almost completely withered)) | 5 (Herbicidal rate of 90% or more (almost completely withered)) | 4 (Herbicidal rate of 70% or more and less than 90%) | 5 (Herbicidal rate of 90% or more (almost completely withered))
5 | CSCCOc1ccc(-c2oc3ccccc3c2-c2c(O)c(C)nn(C)c2=O)cc1 [8-008] | – | 3 (Herbicidal rate of 40% or more and less than 70%) | 5 (Herbicidal rate of 90% or more (almost completely withered)) | 2 (Herbicidal rate of 20% or more and less than 40%) | 4 (Herbicidal rate of 70% or more and less than 90%) | 0 (Herbicidal rate of 5% or less (almost no effect)) | 3 (Herbicidal rate of 40% or more and less than 70%) | 5 (Herbicidal rate of 90% or more (almost completely withered)) | – | 5 (Herbicidal rate of 90% or more (almost completely withered)) | 5 (Herbicidal rate of 90% or more (almost completely withered)) | 5 (Herbicidal rate of 90% or more (almost completely withered)) | 2 (Herbicidal rate of 20% or more and less than 40%) | 4 (Herbicidal rate of 70% or more and less than 90%) | 1 (Herbicidal rate of 5% or more and less than 20%) | 5 (Herbicidal rate of 90% or more (almost completely withered)) | 5 (Herbicidal rate of 90% or more (almost completely withered)) | 4 (Herbicidal rate of 70% or more and less than 90%) | 5 (Herbicidal rate of 90% or more (almost completely withered))

Reference: patent publication US20230085307A1, “PYRIDAZINONE COMPOUND AND HERBICIDE” (NISSAN CHEMICAL CORPORATION, priority 2019, published 2023)
